Among the data in ChEMBL document CHEMBL1132434, “Antitumor benzothiazoles. 8. Synthesis, metabolic formation, and biological properties of the C- and N-oxidation products of antitumor 2-(4-aminophenyl)benzothiazoles” (J Med Chem, 1999) are IC50 values, retold here.

In the test the test system is MCF7. In words: In vitro cytotoxicity against MCF-7 human mammary carcinoma cells. It is filed as functional, cell-based.
The term IC50 denotes the concentration needed to halve the response being measured. Lower therefore signals greater potency. `Nc1ccc(-c2nc3ccccc3s2)cc1CO`: the IC50 worked out at 0.006 µM. Under `CC(=O)ON(C(C)=O)c1ccc(-c2nc3ccccc3s2)cc1` stands under 0.001 µM. Under `Nc1ccc(-c2nc3c(O)cccc3s2)cc1Cl` stands 61.4 µM; under `CC(=O)ON(C(C)=O)c1ccc(-c2nc3ccccc3s2)cc1C`, 0.055 µM. Under `Nc1ccc(-c2nc3ccc(O)cc3s2)cc1` stands 21.6 µM; under `Cc1cc(-c2nc3cccc(O)c3s2)ccc1N`, 90.8 µM. In turn, `CC(=O)Nc1ccc(-c2nc3c(O)cccc3s2)cc1C` registered a half-inhibitory concentration (IC50) of 33 µM. `Nc1ccc(-c2nc3ccc(O)cc3s2)cc1Cl` gave an IC50 of 54.5 µM. The result for `CC(=O)Nc1ccc(-c2nc3cccc(O)c3s2)cc1C` reads 48.2 µM; that for `Nc1ccc(-c2nc3cc(O)ccc3s2)cc1Cl`, 60.6 µM. In turn, `Nc1ccc(-c2nc3c(O)cccc3s2)cc1` registered a 50% inhibitory concentration (IC50) of over 100 µM.

Take `CC(=O)Nc1ccc(-c2nc3ccc(O)cc3s2)cc1C`: the IC50 stood at 46.1 µM. The result for `CC(=O)Nc1ccc(-c2nc3c(O)cccc3s2)cc1Cl` reads 56.8 µM; that for `Nc1ccc(-c2nc3ccccc3s2)cc1I`, under 0.001 µM. Under `Cc1cc(-c2nc3c(O)cccc3s2)ccc1N` stands over 100 µM. The result for `Cc1cc(-c2nc3cc(O)ccc3s2)ccc1N` reads 78.7 µM; that for `CC(=O)Nc1ccc(-c2nc3cc(O)ccc3s2)cc1Cl`, 31 µM; that for `CC(=O)Nc1ccc(-c2nc3ccc(O)cc3s2)cc1Cl`, 71.2 µM. In the case of `Nc1ccc(-c2nc3ccccc3s2)cc1`, the IC50 is under 0.001 µM. The result for `Nc1ccc(-c2nc3cc(O)ccc3s2)cc1` reads over 100 µM; that for `Nc1ccc(-c2nc3ccccc3s2)cc1Cl`, under 0.001 µM; that for `CC(=O)Nc1ccc(-c2nc3cc(O)ccc3s2)cc1C`, 72.5 µM. Under `CC(=O)Nc1ccc(-c2nc3ccccc3s2)cc1O` stands 9 µM.
